In ChEMBL document CHEMBL1145671, “Cactus Alkaloids. LIII. Coryphanthine and O-Methyl-Candicine, Two New Quaternary Alkaloids from Coryphantha greenwoodii” (J Nat Prod, 1983) one finds IC50 and LC50 data, which are given here for nine molecules.

Molecules are shown by their SMILES. Where a name gives a salt, the structure may show the parent alone.

The subject of one series is Artemia. Briefly: (§1) Toxicity against brine shrimp assessed as impaired swimming movements after 24 hrs. In kind it is organism-based. To be noted: Artemia, 24 h.
With `C[N+](C)(C)CC(O)c1ccccc1.[Cl-]` (centres undefined), the IC50 is over 1000 mg/L.

Take `C[N+](C)(C)CCO.[Cl-]` [CHOLINE CHLORIDE]: the half-inhibitory concentration (IC50) is over 1000 mg/L.

The series is the same for the next values; noted with them: artemia, in vivo, 24 h.
`CO[C@H](C[N+](C)(C)C)c1ccccc1.[Cl-]` [CORYPHANTHINE CHLORIDE]: the 50% lethal concentration (LC50) stood at 494 mg/L.

Tested on in a further series: not listed separately
The series is described as §1. In kind it is organism-based, Artemia. The following applies: artemia, in vivo.
As to `CO[C@H](C[N+](C)(C)C)c1ccccc1`, the LC50 at 24 h is 354 mg/L.

Take `COc1ccc(CC[N+](C)(C)C)cc1`: the 50% lethal concentration (LC50) at 24 h stood at 425 mg/L.

On to `COC(C[N+](C)(C)C)c1ccccc1` (racemic), for which the LC50 at 24 h is 368 mg/L.

Regarding `C[N+](C)(C)CCc1ccc(O)cc1` [CANDICINE CHLORIDE], the LC50 at 24 h worked out at 923 mg/L.

With `CN1CCC[C@H]1c1cccnc1` [NICOTINE HYDROCHLORIDE], the LC50 at 24 h turned out to be 158 mg/L.

Turning to `O=C1C[C@@H]2OCC=C3CN4CC[C@]56c7ccccc7N1[C@H]5[C@H]2[C@H]3C[C@H]46` [STRYCHNINE SULFATE], the 50% lethal concentration (LC50) at 24 h was determined as 164 mg/L.
